Source: patent publication US20220313670A1, “Methods Of Treating Fabry Disease In Patients Having Renal Impairment” (Amicus Therapeutics, Inc., priority 2019, published 2022)
“And” between values parts separate entries of the source, which are not always exact repeats. Identical values can stand only once. Like-named read-outs stand apart in the source and are kept apart here.

What was measured:
[1] = Phase 1 single-dose pharmacokinetics and safety study of migalastat HCl in non-Fabry subjects with renal impairment (Example 1, AT1001-015); format: in vivo, human; conditions: for AUC0-∞: individual subjects, in ng·h/mL; for concentration at 96 h: read-out: C96 h, Mean; for Comparison to Example 1 Moderate Impairment (migalastat concentration): non-Fabry subjects with moderate renal impairment, in ng/mL (unit assumed); for Comparison to Example 1 Severe Impairment (migalastat concentration): non-Fabry subjects with severe renal impairment, (coefficient of variation)
Procedure: The eGFR estimated by the Cockcroft-Gault equation per the FDA Guidance for renal impairment studies.
Volunteers were enrolled into two cohorts stratified for renal function calculated using the Cockcroft-Gault equation for creatinine clearance (CLcr). Subjects were assigned to groups based on an estimated CLcr at screening as calculated using the Cockcroft-Gault equation.
Subjects were grouped according to degree of renal dysfunction: mild (CLcr ≥60 and <90 mL/min), moderate (CLcr ≥30 and <60 mL/min), or severe (CLcr ≥15 and <30 mL/min)

[2] = Plasma migalastat concentration in two Fabry patients with renal impairment (P1, P2; Example 3); format: in vivo, human; conditions: for concentration at 0 h: human, plasma, Fabry patient P1 (moderate renal impairment), Pre-dose (0 h)
Procedure: Migalastat levels can be measured via methods known in the art. […] Microcentrifuge tubes containing 100 μl of the tissue homogenate or 50 μl of plasma may then be spiked with 500 ng/mL 13C d2-AT1001 HCl internal standard (manufactured by MDS Pharma Services). A 600 μl volume of 5 mM HCl in 95/5 MeOH:H2O can then be added and the tubes vortexed for 2 minutes, followed by centrifugation at 21000×g for 10 minutes at room temperature. The supernatants may then be collected into a clean, 96-well plate, diluted with 5 mM HCl in dH2O and applied to a 96-well solid phase extraction (SPE) plate (Waters Corp., Milford Mass.). […] The liquid chromatography can be conducted using an ACN:water:formate binary mobile phase system (mobile phase A: 5 mM ammonium formate, 0.5% formic acid in 95:5 ACN:water; mobile phase B: 5 mM ammonium formate, 0.5% formic acid in 5:47.5:47.5 ACN:MeOH:water) with a flow rate of 0.7 mL/minute on an Halo HILIC column (150×4.6 mm, 2.7 μm) (Advanced Materials Technology, Inc.). MS/MS analysis may be carried out under APCi positive ion mode. The same procedure may be followed for migalastat determination in plasma except without homogenization. […] A 12-point calibration curve and quality control samples may be prepared. […] To derive approximate molar concentrations, one gram of tissue may be estimated as one mL of volume.
Thus, two Fabry patients with renal impairment were evaluated. One patient (P1) had moderate renal impairment, while the other patient (P2) had severe renal impairment. […] The comparison with the results from the FACETS study allows for comparison of PK in the Fabry population with mostly normal, but some mild and a few moderately impaired Fabry patients. None had severe renal impairment because these patients were excluded from the study.

[3] = eGFR (MDRD), IDMS traceable, in Fabry patients on migalastat; format: in vivo, human; parameters: eGFR(MDRD), IDMS Traceable: unit not given here
Procedure: An estimated GFR (eGFR) is calculated from serum creatinine using an isotope dilution mass spectrometry (IDMS) traceable equation. Two of the most commonly used equations for estimating glomerular filtration rate (GFR) from serum creatinine are the Chronic Kidney Disease Epidemiology Collaboration (CKD-EPI) equation and the Modification of Diet in Renal Disease (MDRD) Study equation. Both the MDRD Study and CKD-EPI equations include variables for age, gender, and race, which may allow providers to observe that CKD is present despite a serum creatinine concentration that appears to fall within or just above the normal reference interval. The following is the IDMS-traceable MDRD Study equation (for creatinine methods calibrated to an IDMS reference method): […]

[4] = cited from earlier work; for Mean percent of the dose recovered in urine: single ascending dose (SAD) study
[5] = AT1001-015, Mild (CLcr ≥60-<90 mL/min), N 8
[6] = AT1001-015, Moderate (CLcr ≥30-<60 mL/min), N 8
[7] = AT1001-015, Normal (CLcr ≥90 mL/min), N 8
[8] = AT1001-015, Severe (CLcr ≥15-<30 mL/min), N 8
[9] = human, plasma, po, 150 mg, single oral 150 mg migalastat HCl, non-Fabry subjects, renal function group Mild (N = 8)
[10] = human, plasma, po, 150 mg, single oral 150 mg migalastat HCl, non-Fabry subjects, renal function group Moderate (N = 8)
[11] = human, plasma, po, 150 mg, single oral 150 mg migalastat HCl, non-Fabry subjects, renal function group Normal (N = 8)
[12] = human, plasma, po, 150 mg, single oral 150 mg migalastat HCl, non-Fabry subjects, renal function group Severe (N = 8)
[13] = single oral 150 mg migalastat HCl, non-Fabry subjects, renal function group Mild (N = 8)
[14] = single oral 150 mg migalastat HCl, non-Fabry subjects, renal function group Moderate (N = 8)
[15] = single oral 150 mg migalastat HCl, non-Fabry subjects, renal function group Normal (N = 8)
[16] = Fabry patient P1, moderate renal impairment

- increase of C48h concentration over 6 months [2, 16]: 49%
- increase of Cmax over 6 months [2, 16]: 33%
- concentration at 0 h ([2]; Migalastat Conc 6 months later): 36.4 ng/mL
- concentration at 0 h ([2]; Migalastat Conc, first set): 19.9 ng/mL
SMILES: OC[C@H]1NC[C@H](O)[C@@H](O)[C@H]1O [migalastat, (2R,3S,4R,55)-2-(hydroxymethyl) piperdine-3,4,5-triol]
- AUC0-t, Geometric mean [1, 5]: 14374 ng·h/mL
- AUC0-∞, Geometric mean (CV %) [1, 5]: 14520 (30.8) hr*ng/mL
- C96 h, Mean [1, 5]: BLQ
- Frel [1, 5]: 1.2
- t1/2, Mean [1, 5]: 7.7 h
- tmax, Median (min-max) [1, 5]: 2.5 (1.5-4.0) hr
- AUC0-t, Geometric mean [1, 6]: 22122 ng·h/mL
- AUC0-∞, Geometric mean (CV %) [1, 6]: 22455 (41.2) hr*ng/mL
- Frel [1, 6]: 1.8
- AUC0-t, Geometric mean [1, 7]: 12299 ng·h/mL
- AUC0-∞, Geometric mean (CV %) [1, 7]: 12389 (24.8) hr*ng/mL
- C96 h, Mean [1, 7]: BLQ
- t1/2, Mean [1, 7]: 6.4 h
- tmax, Median (min-max) [1, 7]: 2.5 (1.5-3.0) hr
- AUC0-t, Geometric mean [1, 8]: 53098 ng·h/mL
- AUC0-∞, Geometric mean (CV %) [1, 8]: 56174 (24.2) hr*ng/mL
- Cmax, Geometric mean (CV %) [1, 8]: 2078 (43.3) ng/mL
- Frel [1, 8]: 4.5
- AUC0-∞ ([1]; NCA SD Data, single 150 mg migalastat HCl, Moderate (≥30-≤35) group): 36051 and 40653 and 19723
- AUC0-∞ ([1]; NCA SD Data, single 150 mg migalastat HCl, Severe (<30) group): 83312 and 54470 and 48890 and 62034 and 59538 and 65916 and 36227 and 49905
- concentration at 48 h ([1]; human, plasma, oral, 150 mg, 150 mg dose of migalastat hydrochloride, individuals with normal kidney function, level of quantification, read-out: C48h): < 5 ng/mL
- concentration at 48 h ([1]; human, plasma, oral, 150 mg, AT1001-015, Mild (CLcr ≥60-<90 mL/min), N 8, read-out: C48 h, Mean): 9.34 ng/mL
- concentration at 96 h ([1]; human, plasma, oral, 150 mg, AT1001-015, Moderate (CLcr ≥30-<60 mL/min), N 8): 16.7 ng/mL
- concentration at 48 h ([1]; human, plasma, oral, 150 mg, AT1001-015, Normal (CLcr ≥90 mL/min), N 8, read-out: C48 h, Mean): 5.7 ng/mL
- AUC(0-inf) ([1]; human, plasma, oral, 150 mg, NCA SD Data, single 150 mg migalastat HCl, Geometric Mean of the 11 subjects): 47600 ng·h/mL
- concentration at 96 h ([1]; human, plasma, oral, 150 mg, AT1001-015, Severe (CLcr ≥15-<30 mL/min), N 8): 105 ng/mL
- tmax ([1]; human, plasma, oral, 150 mg, AT1001-015, Severe (CLcr ≥15-<30 mL/min), N 8, read-out: tmax, Median (min-max)): 4 h
- AUC(0-inf) [1, 9]: 14500 ng·h/mL
- AUC(0-t) [1, 9]: 14400 ng·h/mL
- Cmax [1, 9]: 2190 ng/mL
- AUC(0-inf) [1, 10]: 22500 ng·h/mL
- AUC(0-t) [1, 10]: 22100 ng·h/mL
- Cmax [1, 10]: 1870 ng/mL
- AUC(0-inf) [1, 11]: 12400 ng·h/mL
- AUC(0-t) [1, 11]: 12300 ng·h/mL
- Cmax [1, 11]: 2100 ng/mL
- AUC(0-inf) [1, 12]: 56200 ng·h/mL
- AUC(0-t) [1, 12]: 53100 ng·h/mL
- Plasma migalastat C48h levels compared with healthy control subjects ([1]; moderate (predominantly CrCL <50 ml/min) and severe renal impairment): elevated
- Comparison to Example 1 Moderate Impairment (migalastat concentration) ([1]; 3 Hrs Post): 1868
- Comparison to Example 1 Moderate Impairment (migalastat concentration) ([1]; 24 Hrs Post): 239
- Comparison to Example 1 Moderate Impairment (migalastat concentration) ([1]; 48 Hrs Post): 64.5
- Comparison to Example 1 Moderate Impairment (migalastat concentration) ([1]; Pre-dose (0 h), same value as 48 h): 64.5
- Comparison to Example 1 Severe Impairment (migalastat concentration) ([1]; 2 h): 1549 (59.3%)
- Comparison to Example 1 Severe Impairment (migalastat concentration) ([1]; 24 h): 770 (26.5%)
- Comparison to Example 1 Severe Impairment (migalastat concentration) ([1]; 48 h): 334 (38.2%)
- Cmax compared to healthy control subjects ([1]; single oral 150 mg migalastat HCl, across any of the renal impairment groups): not increased
- Incidence of adverse events ([1]; single oral 150 mg migalastat HCl, all renal function groups): comparable across all renal function groups
- mean plasma migalastat AUC0-∞ increase compared to healthy control subjects ([1]; single oral 150 mg migalastat HCl, mild renal impairment): 1.2 fold
- mean plasma migalastat AUC0-∞ increase compared to healthy control subjects ([1]; single oral 150 mg migalastat HCl, moderate renal impairment): 1.8 fold
- CL/F [1, 13]: 10.3 L/h
- t1/2 [1, 13]: 7.66 h
- tmax [1, 13]: 2.50 h
- CL/F [1, 14]: 6.68 L/h
- tmax [1, 14]: 3.00 h
- CL/F [1, 15]: 12.1 L/h
- t1/2 [1, 15]: 6.42 h
- tmax [1, 15]: 2.50 h
- CL/F ([1]; single oral 150 mg migalastat HCl, non-Fabry subjects, renal function group Severe (N = 8)): 2.67 L/h
- tmax compared to healthy control subjects ([1]; single oral 150 mg migalastat HCl, severe group): slightly delayed
- mean plasma migalastat AUC0-∞ increase compared to healthy control subjects ([1]; single oral 150 mg migalastat HCl, severe renal impairment): 4.5 fold
- eGFR(MDRD), IDMS Traceable ([3]; Fabry patient P1, 18 Month Visit): 42
- eGFR(MDRD), IDMS Traceable ([3]; Fabry patient P1, 24 Month Visit): 37
- eGFR(MDRD), IDMS Traceable ([3]; Fabry patient P1, 34-Month Visit): 32
- eGFR ([3]; Fabry patient P3, Aug ′15): 32 mL/min/1.73 m^2
- eGFR ([3]; Fabry patient P3, Aug ′17): 19 mL/min/1.73 m^2
- eGFR(MDRD), IDMS Traceable ([3]; Fabry patient P3, August 2014, QOD): 37
- eGFR(MDRD), IDMS Traceable ([3]; Fabry patient P3, August 2017, Q4D): 19
- eGFR(MDRD), IDMS Traceable ([3]; Fabry patient P3, February 2014, QOD): 42
- eGFR(MDRD), IDMS Traceable ([3]; Fabry patient P3, February 2018, Q7D): 13
- eGFR(MDRD), IDMS Traceable ([3]; Fabry patient P3, January 2018, Q7D): 13
- eGFR(MDRD), IDMS Traceable ([3]; Fabry patient P3, June 2015, QOD): 32
- eGFR ([3]; Fabry patient P3, Mar ′11): 59 mL/min/1.73 m^2
- eGFR(MDRD), IDMS Traceable ([3]; Fabry patient P3, March 2011, QOD): 59
- eGFR(MDRD), IDMS Traceable ([3]; Fabry patient P3, March 2016, QOD): 28
- eGFR(MDRD), IDMS Traceable ([3]; Fabry patient P3, May 2017, Q4D): 21
- eGFR ([3]; Fabry patient P3, May ′17): 21 mL/min/1.73 m^2
- eGFR ([3]; Fabry patient P3, Nov ′17): 15 mL/min/1.73 m^2
- eGFR(MDRD), IDMS Traceable ([3]; Fabry patient P3, November 2017, Q4D): 15
- eGFR(MDRD), IDMS Traceable ([3]; Fabry patient P3, September 2010, QOD): 54
- eGFR(MDRD), IDMS Traceable ([3]; Fabry patient P3, September 2015, QOD): 33
- accumulation of plasma migalastat ([4]; multiple ascending dose studies): only minimal accumulation
- Mean Cmax and AUC0-t values versus dose ([4]; oral doses from 75 mg to 1250 mg): increased in a dose-proportional manner
- Mean percent of the dose recovered in urine ([4]; 25 mg): 32.2%
- Mean percent of the dose recovered in urine ([4]; 75 mg): 43.0%
- Mean percent of the dose recovered in urine ([4]; 225 mg): 49.3%
- Mean percent of the dose recovered in urine ([4]; 675 mg): 48.5%
- time to maximum concentrations ([4]; single-dose studies, oral, healthy volunteers and Fabry patients with normal to mildly impaired renal function (range, 1 to 6 hrs)): approximately 3 hours
